According to patent US20020173491A1, “DAPD combination therapy with inosine monophosphate dehydrogenase inhibitor” (priority 2000, published 2002):
Where two headings read alike, the source gives them in different places. Marks after values point to notes of the source that are not given here.

How the values were obtained:
xxLAI strain of HIV-1 = assay: microbe, parasite or virus in culture; format: cell-based; details: for effect of addition of 0.25 μM MPA on anti-HIV activity in PBMCs / effect of addition of 20 μM RBV on anti-HIV activity in PBMCs / Fold difference in EC50, 0.01 μM MPA / Fold difference in EC50, 0.1 μM MPA / Fold difference in EC50, 0.25 μM MPA / Fold difference in EC50, 5 μM RBV / Fold difference in EC50, 10 μM RBV / Fold difference in EC50, 20 μM RBV: PBMC; for effect of addition of 0.25 μM MPA on anti-HIV activity in PBMCs / effect of addition of 20 μM RBV on anti-HIV activity in PBMCs: all the concentrations tested; for Fold difference in EC50, 0.01 μM MPA: control vs with 0.01 μM MPA; for Fold difference in EC50, 0.1 μM MPA: control vs with 0.1 μM MPA; for Fold difference in EC50, 0.25 μM MPA: control vs with 0.25 μM MPA; for Fold difference in EC50, 5 μM RBV: control vs with 5 μM RBV; for Fold difference in EC50, 10 μM RBV: control vs with 10 μM RBV; for Fold difference in EC50, 20 μM RBV: control vs with 20 μM RBV
Protocol: In this assay, cell supernatants were incubated on microelisa wells coated with antibodies to HIV-1 p24 core antigen. Subsequently, anti-HIV-1 conjugate labeled with horseradish peroxidase was added. The labeled antibody bound to the solid phase antibody/antigen complexes previously formed. Addition of the tetramethylbenzidine substrate results in blue color formation. The color turned yellow when the reaction is stopped. The plates were then analyzed on a plate reader set at 490 nm. The absorbance is a direct measurement of the amount of HIV-1 produced in each well and a decrease in color indicates decreased viral production. […] PBMC were obtained from HIV-1 negative donors by banding on Ficoll gradients, stimulated with phytohemaglutinin (PHAP) for 48 hours prior to infection with HIV-1, and infected with virus for 4 hours at 37° C. at a MOI of 0.001. […] Plates were incubated for 3 days at 37° C. The concentration of virus in each well was determined using the NEN p24 assay. Using the absorption values of the cell controls as 100% protection and drug free, virus infected cells as 0% protection, a dose response curve is generated by plotting percent protection on the Y axis and drug concentration on the X axis. From this curve, EC50 values were determined.
Compound dilutions and assay conditions were as described above.
MPA was also tested for activity against the xxLAI strain of HIV-1 in PBMCs using a p24 based Elisa assay. In this assay, cell supernatants are incubated on microelisa wells coated with antibodies to HIV-1 p24 core antigen. Subsequently, anti-HIV-1 conjugate labeled with horse radish peroxidase is added. The labeled antibody binds to the solid phase antibody/antigen complexes previously formed. Addition of the tetramethylbenzidine substrate results in blue color formation. The color turns yellow when the reaction is stopped. The plates are then analyzed on a plate reader set at 490 nm. The absorbance is a direct measurement of the amount of HIV-1 produced in each well and a decrease in color indicates decreased viral production. Dilutions of MPA were made in cell culture media in a 96 well plate, the highest concentration of MPA tested was 1 μM. PBMC were obtained from HIV-1 negative donors by banding on Ficoll gradients, stimulated with phytohemaglutinin (PHAP) for 48 hours prior to infection with HIV-1, and infected with virus for 4 hours at 37° C. at a MOI of 0.001. Infected cells were seeded into 96 well plates containing 4-fold serial dilutions of MPA. Plates were incubated for 3 days at 37° C. The concentration of virus in each well was determined using the NEN p24 assay. Using the absorption values of the cell controls as 100% protection and drug free, virus infected cells as 0% protection, a dose response curve is generated by plotting % protection on the Y axis and drug concentration on the X axis. From this curve EC50 values were determined.
Compound dilutions and assay conditions were as described above. The concentrations of MPA used were 1, 0.5, 0.25, 0.1, and 0.01 μM.

HIV-1 mutant K65R = assay: MT2/XTT combination assay, resistant virus K65R; format: cell-based; details: for EC50: Human immunodeficiency virus 1, K65R; for fold difference from WT: K65R
Protocol: Triplicate samples of compound were tested. MT2 cells were infected with xxLAI at a multiplicity of infection (MOI) of 0.03 for 3 hours at 37° C. in 5% CO2. The infected cells were plated at 3.0×10^4/well into a 96 well plated containing drug dilutions and incubated for 5 days at 37° C. in CO2. […] This method has been modified into a susceptibility assay and has been used in a variety of in vitro antiviral tests and is readily adaptable to any system with a lytic virus (Weislow, O. S., et. al. 1989). Using the absorption values of the cell controls as 100% protection and no drug, virus infected cells as 0% protection, a dose response curve is generated by plotting % protection on the Y axis and drug concentration on the X axis. From this curve EC50 values were determined.
Assays were performed in the MT2 cell line as described above in the XXT sensitivity assay section.
(§1) The restraint strains analyzed included viruses created by site directed mutagenesis, K65R and L74V, as well as a recombinant virus containing mutations at positions 98S, 116Y, 151M and 215Y. The wild type backbone in which these mutants were created, xxLAI, was also analyzed for comparison. The concentrations of DAPD and DXG tested were as described in the above MT2/XTT combination assay section.
The concentrations of MPA used were 1, 0.5, 0.25, 0.1, and 0.01 μM. Assays were performed in the MT2 cell line as described in section 3.1.
as §1, with “section 4.1. MPA was tested in” for “the above MT2/XTT”, “with DAPD and DXG at a fixed concentration of 0.25 μM.” for “assay section.”

[1] = Human immunodeficiency virus 1, PBMC, read-out: Mean EC50, Control, PMBCs, no MPA
[2] = Human immunodeficiency virus 1, PBMC, read-out: Mean EC50, Control, PMBCs, no RBV
[3] = read-out: Mean EC50, 0.01 μM MPA, PMBCs, with 0.01 μM MPA
[4] = read-out: Mean EC50, 0.1 μM MPA, PMBCs, with 0.1 μM MPA
[5] = read-out: Mean EC50, 0.25 μM MPA, PMBCs, with 0.25 μM MPA
[6] = read-out: Mean EC50, 1 μM RBV, PMBCs, with 1 μM RBV
[7] = read-out: Mean EC50, 5 μM RBV, PMBCs, with 5 μM RBV
[8] = read-out: Mean EC50, 10 μM RBV, PMBCs, with 10 μM RBV
[9] = read-out: Mean EC50, 20 μM RBV, PMBCs, with 20 μM RBV

| Structure (SMILES) | EC50 (xxLAI strain of HIV-1; [1]) | EC50 (xxLAI strain of HIV-1; [2]) | effect of addition of 0.25 μM MPA on anti-HIV activity in PBMCs (xxLAI strain of HIV-1; with 0.25 μM MPA) | effect of addition of 20 μM RBV on anti-HIV activity in PBMCs (xxLAI strain of HIV-1; with 20 μM RBV) | Fold difference in EC50, 0.01 μM MPA (xxLAI strain of HIV-1) | Fold difference in EC50, 0.1 μM MPA (xxLAI strain of HIV-1) | Fold difference in EC50, 0.25 μM MPA (xxLAI strain of HIV-1) | Fold difference in EC50, 5 μM RBV (xxLAI strain of HIV-1) | Fold difference in EC50, 10 μM RBV (xxLAI strain of HIV-1) | Fold difference in EC50, 20 μM RBV (xxLAI strain of HIV-1) | EC50 (xxLAI strain of HIV-1; [3]) | EC50 (xxLAI strain of HIV-1; [4]) | EC50 (xxLAI strain of HIV-1; [5]) | EC50 (xxLAI strain of HIV-1; [6]) | EC50 (xxLAI strain of HIV-1; [7]) | EC50 (xxLAI strain of HIV-1; [8]) | EC50 (xxLAI strain of HIV-1; [9]) | EC50 (HIV-1 mutant K65R; compound alone (Table 4)) | EC50 (HIV-1 mutant K65R; compound alone (Table 10)) | fold difference from WT (HIV-1 mutant K65R; compound alone (Table 4)) | further results |
| --- | --- | --- | --- | --- | --- | --- | --- | --- | --- | --- | --- | --- | --- | --- | --- | --- | --- | --- | --- | --- | --- |
| Nc1nc(N)c2ncn(C3COC(CO)O3)c2n1 (single isomer, unassigned; (-)) [DAPD] | 4100 nM | 4500 nM | completely inhibited HIV replication | completely inhibited HIV replication | 4.6 fold | 22.8 fold | >50 fold | 6.4 fold | 28 fold | >150 fold | 900 nM | 180 nM | < 0.2 nM | 2260 nM | 700 nM | 160 nM | < 30 nM | 43700 nM | 41000 nM | (5.5)^b fold | fold difference from WT (HIV-1 mutant K65R; compound alone (Table 10)): 6 fold |
| Nc1nc2c(ncn2C2COC(CO)O2)c(=O)[nH]1 (single isomer, unassigned; (-)) [DXG] | 140 nM | 150 nM | completely inhibited HIV replication | completely inhibited HIV replication | 9.3 fold | 23.3 fold | >50 fold | 5.6 fold | >15 fold | >15 fold | 15 nM | 6 nM | < 0.2 nM | 75 nM | 27 nM | < 10 nM | < 10 nM | 3900 nM | 4000 nM | 5 fold | fold difference from WT (HIV-1 mutant K65R; compound alone (Table 10)): 5.6 fold |
